Results reported in US20240174618A1, “SUBSTITUTED (2-HETEROARYLOXYPHENYL)SULFONATES, SALTS THEREOF AND THEIR USE AS HERBICIDAL AGENTS” (Bayer Aktiengesellschaft, priority 2021, published 2024).

Tests used:
Format in all cases: in vivo
[1] = system: Alopecurus myosuroides (ALOMY); test: A. Herbicidal pre-emergence efficacy, ALOMY; details: scored visually after about 3 weeks vs untreated controls
Outline: (§1)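 Applied before emergence onto covering soil at rates of 1280 g/ha or less, using 600 L/ha spray water with 0.5% additive. Scoring: visual % efficacy after ~3 weeks, greenhouse.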

[2] = system: Echinochloa crus-galli (ECHCG); test: B. Herbicidal post-emergence efficacy, ECHCG; details: rated visually after about 3 weeks
Outline: (§2)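 Weeds grown in sandy loam in greenhouse pots, sprayed at one-leaf stage (2–3 weeks after sowing) with WP or EC formulations as aqueous suspension/emulsion plus 0.5% additive at 600 L/ha water, rates up to 1280 g/ha. Visual efficacy rated about 3 weeks later versus untreated controls (0% = like control, 100% = dead).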

Kochia scoparia (KCHSC) = test: B. Herbicidal post-emergence efficacy, KCHSC; details: for Post-emergence efficacy against KCHSC in %: rated visually after about 3 weeks; for Post-emergence efficacy against KCHSC: 1280 g/ha
Outline: as §2

Lolium rigidum (LOLRI) = test: C. Herbicidal pre-emergence efficacy, LOLRI; details: 320 g/ha, scored after about 3 weeks
Excerpt: Seeds of monocotyledonous and dicotyledonous weed plants and crop plants were placed in plastic or organic planting pots and covered with soil. The compounds of the invention, formulated in the form of wettable powders (WP) or as emulsion concentrates (EC), were then applied to the surface of the covering soil as aqueous suspension or emulsion with addition of 0.5% additive at a water application rate equivalent to 600 l/ha (converted). After the treatment, the pots were placed in a greenhouse and kept under good growth conditions for the test plants. After about 3 weeks, the efficacy of the preparations was scored visually in comparison with untreated controls as percentages. For example, • 100% efficacy=plants have died, • 0% efficacy=like untreated control plants.
Tables C1a to C14b below show the effects of selected compounds of the general formula (I) according to table 1 on various harmful plants at an application rate corresponding to 320 g/ha or less, which were obtained by the experimental procedure mentioned above.

Setaria viridis (SETVI) = test: E. Herbicidal post-emergence efficacy, SETVI
Protocol: Seeds of monocotyledonous and dicotyledonous weeds and crop plants were placed in sandy loam in plastic or organic planting pots, covered with soil and cultivated in a greenhouse under controlled growth conditions. 2 to 3 weeks after sowing, the test plants were treated at the one-leaf stage. The compounds of the invention, formulated in the form of wettable powders (WP) or as emulsion concentrates (EC), were then sprayed onto the green parts of the plants as aqueous suspension or emulsion with addition of 0.5% additive at a water application rate of 600 l/ha (converted). After the test plants had been kept in the greenhouse under optimum growth conditions for about 3 weeks, the activity of the preparations was rated visually in comparison to untreated controls.
For example, • 100% efficacy=plants have died, • 0% action=like untreated control plants.
Tables E1a to E12b below show the effects of selected compounds of the general formula (I) according to table 1 on various harmful plants at an application rate corresponding to 320 g/ha or less, which were obtained by the experimental procedure mentioned above.

Veronica persica (VERPE) = test: E. Herbicidal post-emergence efficacy, VERPE
Outline: (§3)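 Compounds applied at 320 g/ha or less as a foliar spray (600 l/ha, 0.5% additive) to one-leaf-stage greenhouse plants grown in sandy loam. Damage is visually scored in percent relative to untreated plants after about 3 weeks.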

[3] = system: Abutilon theophrasti (ABUTH); test: E. Herbicidal post-emergence efficacy, ABUTH
Outline: as §3

[4] = system: Digitaria sanguinalis (DIGSA); test: A. Herbicidal pre-emergence efficacy, DIGSA; details: scored visually after about 3 weeks vs untreated controls
Outline: as §1

Structure (SMILES)	Pre-emergence efficacy against ALOMY ([1]; 320 g/ha)	Pre-emergence efficacy against ALOMY ([1]; 1280 g/ha)	Post-emergence efficacy against ECHCG in % ([2]; 1280 g/ha)	Post-emergence efficacy against KCHSC in % (Kochia scoparia (KCHSC); 80 g/ha)	Post-emergence efficacy against KCHSC in % (Kochia scoparia (KCHSC); 320 g/ha)	Post-emergence efficacy against KCHSC (Kochia scoparia (KCHSC))	Pre-emergence efficacy against LOLRI (Lolium rigidum (LOLRI))	Post-emergence efficacy against SETVI in % (Setaria viridis (SETVI); application rate 320 g/ha)	Post-emergence efficacy against VERPE in % (Veronica persica (VERPE); application rate 80 g/ha)	Post-emergence efficacy against VERPE in % (Veronica persica (VERPE); application rate 320 g/ha)	Post-emergence efficacy against ECHCG in % ([2]; 320 g/ha)	Post-emergence efficacy against ABUTH in % ([3]; application rate 320 g/ha)	Post-emergence efficacy against SETVI in % (Setaria viridis (SETVI); application rate 80 g/ha)	Post-emergence efficacy against ECHCG in % ([2]; 80 g/ha)	Pre-emergence efficacy against DIGSA ([4]; 320 g/ha)	Pre-emergence efficacy against DIGSA ([4]; 1280 g/ha)	Post-emergence efficacy against ABUTH in % ([3]; application rate 80 g/ha)	Pre-emergence efficacy against DIGSA ([4]; 80 g/ha)
CCCS(=O)(=O)Oc1ccccc1Oc1ncc(Cl)cn1 [Example I-3]	90%	100%	90%	90%	90%	90%	90%	90%	80%	90%	–	–	–	–	–	–	–	–
CC(C)CS(=O)(=O)Oc1ccccc1Oc1ncc(Cl)cn1 [Example I-7, [2-(5-Chloropyrimidin-2-yl)oxyphenyl] 2-methylpropane-1-sulfonate]	–	–	90%	–	–	90%	90%	100%	90%	100%	90%	100%	90%	–	–	–	–	–
O=S(=O)(CCCCCl)Oc1ccccc1Oc1ncc(Cl)cn1 [Example I-15]	–	–	100%	100%	100%	100%	80%	100%	90%	100%	100%	80%	80%	90%	–	–	–	–
O=S(=O)(CCC(F)(F)F)Oc1c(Cl)cccc1Oc1ncc(Br)cn1 [Example I-32]	–	90%	100%	100%	100%	100%	–	100%	100%	100%	90%	80%	80%	90%	90%	90%	80%	–
O=S(=O)(CCC(F)(F)F)Oc1c(Cl)cccc1Oc1ncc(Cl)cn1 [Example I-38]	–	100%	–	–	90%	90%	100%	100%	100%	100%	–	100%	100%	–	100%	100%	–	–
O=S(=O)(CCCC(F)(F)F)Oc1c(Cl)cccc1Oc1ncc(Cl)cn1 [Example I-39]	90%	100%	–	90%	90%	90%	100%	100%	100%	100%	–	100%	100%	–	100%	100%	80%	100%
O=S(=O)(CCC(F)(F)F)Oc1c(Br)cccc1Oc1ncc(F)cn1 [Example I-43]	–	90%	90%	90%	90%	100%	–	–	100%	100%	90%	–	–	–	100%	100%	–	–
Cc1cccc(Oc2ncc(F)cn2)c1OS(=O)(=O)CCC(F)(F)F [Example I-45]	90%	100%	100%	–	90%	100%	90%	80%	80%	100%	100%	–	–	–	100%	100%	–	90%
C=CCCS(=O)(=O)Oc1c(F)cccc1Oc1ncc(Cl)cn1 [Example I-50]	–	–	90%	–	–	90%	100%	90%	90%	100%	–	–	–	–	90%	100%	–	90%
COCCS(=O)(=O)Oc1c(F)cccc1Oc1ncc(Cl)cn1 [Example I-52]	–	–	90%	–	–	–	90%	80%	100%	100%	–	–	–	–	90%	100%	–	–
O=S(=O)(CCC1CC1)Oc1c(F)cccc1Oc1ncc(Cl)cn1 [Example I-55]	–	–	90%	–	90%	90%	90%	90%	100%	100%	90%	100%	80%	–	100%	100%	–	100%
O=S(=O)(CCCC(F)(F)C(F)(F)F)Oc1c(F)cccc1Oc1ncc(Cl)cn1 [Example I-68]	–	90%	100%	100%	100%	100%	–	100%	100%	100%	90%	90%	100%	–	90%	100%	–	–
O=S(=O)(CCC(F)=C(F)F)Oc1c(F)cccc1Oc1ncc(Cl)cn1 [Example I-70]	–	–	–	–	–	–	100%	100%	100%	100%	–	90%	100%	–	–	–	80%	–
O=S(=O)(CCC(F)=C(F)F)Oc1c(Cl)cccc1Oc1ncc(Cl)cn1 [Example I-73]	–	–	100%	90%	100%	100%	80%	–	90%	100%	90%	80%	–	–	90%	100%	–	–
Cc1cccc(Oc2ncc(Cl)cn2)c1OS(=O)(=O)CC1CC(F)(F)C1 [Example I-74]	–	90%	100%	90%	100%	100%	–	90%	90%	100%	100%	90%	–	–	100%	100%	–	–
N#Cc1cccc(Oc2ncc(Cl)cn2)c1OS(=O)(=O)CCCC(F)(F)F [Example I-81]	–	–	–	–	–	–	90%	100%	100%	100%	–	90%	–	–	–	–	80%	–
